Measurements taken from US20060069132A1, “Azolecarboxamide herbicides” (priority 2004, published 2006).

Key:
Test in all cases: Test E pre-/postemergence herbicide test
Surinam grass = format: in vivo, Urochloa decumbens
Description: (§1) Seeds of plant species selected from bipinnate beggarticks (Bidens bipinnata L.), hairy beggarticks (Bidens radiata Thuill.), bermudagrass (Cynodon dactylon (L.) Pers.), Surinam grass (Urochloa decumbens (Staph) R. D. Webster, previously named Brachiaria decumbens Stapf), large crabgrass (Digitaria sanguinalis (L.) Scop.), green foxtail (Setaria viridis (L.) P. Beauv.), goosegrass (Eleusine indica (L.) Gaertn.), johnsongrass (Sorghum halepense (L.) Pers.), kochia (Kochia scoparia (L.) Schrad.), pitted morningglory (Ipomoea lacunosa L.), purple nutsedge (Cyperus rotundus L.), common ragweed (Ambrosia elatior L.), mustard (Brassica nigra (L.) W. D. J. Koch), guineagrass (Panicum maximum Jacq.), dallisgrass (Paspalum dilatatum Poir.), barnyardgrass (Echinochloa crus-galli (L). P. Beauv.), southern sandbur (Cenchrus echinatus L.), common sowthistle (Sonchus oleraceous L.), prickly sida (Sida spinosa L.), Italian ryegrass (Lolium multiflorum Lam.), common purslane (Portulaca oleracea L.), broadleaf signalgrass (Brachiaria platyphylla (Griseb.) Nash), common groundsel (Senecio vulgaris L.), common chickweed (Stellaria media (L.) Vill/Cyr.), tropical spiderwort (Commelina benghalensis L.), annual bluegrass (Poa annua L.), downy bromegrass (Bromus tectorum L.), itchgrass (Rottboellia cochinchinensis (L.) L.f.), quackgrass (Elytrigia repens (L.) Nevski), Canada horseweed (Erigeron Canadensis L.), field bindweed (Convolvulus arvensis L.), spotted spurge (Euphorbia maculata L.), common mallow (Malva sylvestris (=s silvestris) L.), and Russian thistle (Salsola kali L. ssp. Ruthenica (Iljin) Soo) were planted and treated preemergence with test chemicals formulated in a non-phytotoxic solvent mixture which included a surfactant.
(§2) At the same time, plants selected from these weed species were treated with postemergence applications of some of the test chemicals formulated in the same manner. Plants ranged in height from 2 to 18 cm (1- to 4-leaf stage) for postemergence treatments. Treated plants and controls were maintained in a greenhouse for 12 to 14 days, after which time all species were compared to controls and visually evaluated. Plant response ratings, summarized in Table E, are based on a scale of 0 to 100 where 0 is no effect and 100 is complete control. A dash (-) response means no test result.

large crabgrass = format: in vivo, Digitaria sanguinalis
Description: as §1, §2

pitted morningglory = format: in vivo, Ipomoea lacunosa
Description: as §1, §2

common ragweed = format: in vivo, Ambrosia elatior
Description: as §1, §2

mustard = format: in vivo, Brassica nigra
Description: as §1, §2

guineagrass = format: in vivo, Panicum maximum
Description: as §1, §2

dallisgrass = format: in vivo, Paspalum dilatatum
Description: as §1, §2

barnyardgrass = format: in vivo, Echinochloa crus-galli
Description: as §1, §2

southern sandbur = format: in vivo, Cenchrus echinatus
Description: as §1, §2

common groundsel = format: in vivo, Senecio vulgaris
Description: as §1, §2

tropical spiderwort = format: in vivo, Commelina benghalensis
Description: as §1, §2

quackgrass = format: in vivo, Elytrigia repens
Description: as §1, §2

Canada horseweed = format: in vivo, Erigeron Canadensis
Description: as §1, §2

field bindweed = format: in vivo, Convolvulus arvensis
Description: as §1, §2

common mallow = format: in vivo, Malva sylvestris
Description: as §1, §2

Russian thistle = format: in vivo, Salsola kali; settings: Preemergence
Description: as §1, §2

[1] = Postemergence, 500 g ai/ha, scale 0 to 100
[2] = Postemergence, 250 g ai/ha, scale 0 to 100
[3] = Preemergence, 62 g ai/ha, scale 0 to 100
[4] = Preemergence, 500 g ai/ha, scale 0 (no effect) to 100 (complete control)
[5] = postemergence, 125 g ai/ha, scale 0 to 100
[6] = postemergence, 62 g ai/ha, scale 0 to 100
[7] = Preemergence, 125 g ai/ha, scale 0 (no effect) to 100 (complete control)
[8] = Preemergence, 250 g ai/ha, scale 0 (no effect) to 100 (complete control)

## CCn1nc(C(C)(C)C)cc1C(=O)Nc1cc(C(=O)N(C)C)ccc1F [Compound 6, N-[5-[(dimethylamino)carbonyl]-2-fluorophenyl]-3-(1,1-dimethylethyl)-1-ethyl-1H-pyrazole-5-carboxamide]
Surinam grass; [1]
  Plant response rating, Surinam Grass: 98
Surinam grass; [2]
  Plant response rating, Surinam Grass: 95
Surinam grass; [3]
  Plant response rating, Surinam Grass: 85
Surinam grass; Preemergence, 125 g ai/ha, scale 0 to 100
  Plant response rating, Surinam Grass: 90
Surinam grass; [4]
  Plant response rating, Surinam Grass: 100
Surinam grass; [5]
  Plant response rating, Surinam Grass: 90
Surinam grass; [6]
  Plant response rating, Surinam Grass: 75
Large crabgrass; [1]
  Plant response rating, Crabgrass, Large: 98
Large crabgrass; [2]
  Plant response rating, Crabgrass, Large: 98
Large crabgrass; [3]
  Plant response rating, Crabgrass, Large: 80
Large crabgrass; [7]
  Plant response rating, Crabgrass, Large: 90
Large crabgrass; [4]
  Plant response rating, Crabgrass, Large: 100
Large crabgrass; [5]
  Plant response rating, Crabgrass, Large: 90
Large crabgrass; [6]
  Plant response rating, Crabgrass, Large: 75
Pitted morningglory; [1]
  Plant response rating, Morningglory: 80
Pitted morningglory; [2]
  Plant response rating, Morningglory: 60
Pitted morningglory; [3]
  Plant response rating, Morningglory: 20
Pitted morningglory; [7]
  Plant response rating, Morningglory: 70
Pitted morningglory; [4]
  Plant response rating, Morningglory: 100
Pitted morningglory; [5]
  Plant response rating, Morningglory: 10
Pitted morningglory; [6]
  Plant response rating, Morningglory: 0
Common ragweed; [1]
  Plant response rating, Ragweed: 95
Common ragweed; [2]
  Plant response rating, Ragweed: 95
Common ragweed; [3]
  Plant response rating, Ragweed: 50
Common ragweed; [7]
  Plant response rating, Ragweed: 80
Common ragweed; [4]
  Plant response rating, Ragweed: 95
Common ragweed; [5]
  Plant response rating, Ragweed: 90
Common ragweed; [6]
  Plant response rating, Ragweed: 75
mustard; [1]
  Plant response rating, Black Mustard: 100
mustard; [2]
  Plant response rating, Black Mustard: 100
mustard; [3]
  Plant response rating, Black Mustard: 100
mustard; [7]
  Plant response rating, Black Mustard: 100
mustard; [8]
  Plant response rating, Black Mustard: 100
mustard; [4]
  Plant response rating, Black Mustard: 100
mustard; [5]
  Plant response rating, Black Mustard: 100
mustard; [6]
  Plant response rating, Black Mustard: 95
guineagrass; [1]
  Plant response rating, Guineagrass: 98
guineagrass; [2]
  Plant response rating, Guineagrass: 95
guineagrass; [3]
  Plant response rating, Guineagrass: 95
guineagrass; [7]
  Plant response rating, Guineagrass: 95
guineagrass; [8]
  Plant response rating, Guineagrass: 95
guineagrass; [4]
  Plant response rating, Guineagrass: 100
guineagrass; [5]
  Plant response rating, Guineagrass: 90
guineagrass; [6]
  Plant response rating, Guineagrass: 80
dallisgrass; [1]
  Plant response rating, Dallisgrass: 90
dallisgrass; [2]
  Plant response rating, Dallisgrass: 80
dallisgrass; [3]
  Plant response rating, Dallisgrass: 90
dallisgrass; [7]
  Plant response rating, Dallisgrass: 95
dallisgrass; [8]
  Plant response rating, Dallisgrass: 95
dallisgrass; [4]
  Plant response rating, Dallisgrass: 100
dallisgrass; [5]
  Plant response rating, Dallisgrass: 75
dallisgrass; [6]
  Plant response rating, Dallisgrass: 60
barnyardgrass; [1]
  Plant response rating, Barnyardgrass: 98
barnyardgrass; [2]
  Plant response rating, Barnyardgrass: 95
barnyardgrass; [3]
  Plant response rating, Barnyardgrass: 90
barnyardgrass; [7]
  Plant response rating, Barnyardgrass: 95
barnyardgrass; [8]
  Plant response rating, Barnyardgrass: 95
barnyardgrass; [4]
  Plant response rating, Barnyardgrass: 100
barnyardgrass; [5]
  Plant response rating, Barnyardgrass: 90
barnyardgrass; [6]
  Plant response rating, Barnyardgrass: 80
Southern sandbur; [1]
  Plant response rating, Sandbur: 100
Southern sandbur; [2]
  Plant response rating, Sandbur: 100
Southern sandbur; [3]
  Plant response rating, Sandbur: 85
Southern sandbur; [7]
  Plant response rating, Sandbur: 100
Southern sandbur; [4]
  Plant response rating, Sandbur: 100
Southern sandbur; [5]
  Plant response rating, Sandbur: 95
Southern sandbur; [6]
  Plant response rating, Sandbur: 85
Common groundsel; [1]
  Plant response rating, Groundsel: 100
Common groundsel; [2]
  Plant response rating, Groundsel: 100
Common groundsel; [3]
  Plant response rating, Groundsel: 100
Common groundsel; [7]
  Plant response rating, Groundsel: 100
Common groundsel; [4]
  Plant response rating, Groundsel: 100
Common groundsel; [5]
  Plant response rating, Groundsel: 95
Common groundsel; [6]
  Plant response rating, Groundsel: 20
Tropical spiderwort; [1]
  Plant response rating, Spiderwort: 95
Tropical spiderwort; [2]
  Plant response rating, Spiderwort: 90
Tropical spiderwort; [3]
  Plant response rating, Spiderwort: 70
Tropical spiderwort; [7]
  Plant response rating, Spiderwort: 75
Tropical spiderwort; [8]
  Plant response rating, Spiderwort: 80
Tropical spiderwort; [4]
  Plant response rating, Spiderwort: 95
Tropical spiderwort; [5]
  Plant response rating, Spiderwort: 75
Tropical spiderwort; [6]
  Plant response rating, Spiderwort: 60
quackgrass; [1]
  Plant response rating, Quackgrass: 98
quackgrass; [2]
  Plant response rating, Quackgrass: 95
quackgrass; [3]
  Plant response rating, Quackgrass: 95
quackgrass; [7]
  Plant response rating, Quackgrass: 100
quackgrass; [4]
  Plant response rating, Quackgrass: 100
quackgrass; [5]
  Plant response rating, Quackgrass: 90
quackgrass; [6]
  Plant response rating, Quackgrass: 80
Canada horseweed; [1]
  Plant response rating, Horseweed: 100
Canada horseweed; [2]
  Plant response rating, Horseweed: 100
Canada horseweed; [3]
  Plant response rating, Horseweed: 100
Canada horseweed; [7]
  Plant response rating, Horseweed: 100
Canada horseweed; [8]
  Plant response rating, Horseweed: 100
Canada horseweed; [4]
  Plant response rating, Horseweed: 100
Canada horseweed; [5]
  Plant response rating, Horseweed: 100
Canada horseweed; [6]
  Plant response rating, Horseweed: 75
Field bindweed; [1]
  Plant response rating, Bindweed, Field: 100
Field bindweed; [2]
  Plant response rating, Bindweed, Field: 100
Field bindweed; [3]
  Plant response rating, Bindweed, Field: 30
Field bindweed; [7]
  Plant response rating, Bindweed, Field: 60
Field bindweed; [4]
  Plant response rating, Bindweed, Field: 100
Field bindweed; [5]
  Plant response rating, Bindweed, Field: 95
Field bindweed; [6]
  Plant response rating, Bindweed, Field: 10
Common mallow; [1]
  Plant response rating, Mallow: 100
Common mallow; [2]
  Plant response rating, Mallow: 100
Common mallow; [3]
  Plant response rating, Mallow: 70
Common mallow; [7]
  Plant response rating, Mallow: 100
Common mallow; [4]
  Plant response rating, Mallow: 100
Common mallow; [5]
  Plant response rating, Mallow: 95
Common mallow; [6]
  Plant response rating, Mallow: 65
Russian thistle; 62 g ai/ha, scale 0 to 100
  Plant response rating, Thistle: 50
Russian thistle; 125 g ai/ha, scale 0 to 100
  Plant response rating, Thistle: 70
Russian thistle; 250 g ai/ha, scale 0 (no effect) to 100 (complete control)
  Plant response rating, Thistle: 70
Russian thistle; 500 g ai/ha, scale 0 (no effect) to 100 (complete control)
  Plant response rating, Thistle: 80
